From patent US20260356830A1, “COMPOUNDS FOR MODULATING RET PROTEIN” (Bristol-Myers Squibb Company, priority 2022, published 2026)

Molecular target: T1, CCDC6-RET (Homo sapiens, UniProt P07949+Q16204+Q96SW2)
T1 construct: CCDC6 (natural N-terminal fusion partner, UniProt Q16204); endogenous in cells; host or cells: TPC-1 (parental, papillary thyroid carcinoma)
Assay: Cellular RET degradation, AlphaLISA, TPC-1 cell line
Type: cell-based
Conditions: for Dmax: TPC1, human, 24 h, read-out: Cell Density TPC-1/CCDC6-RET Ymax %; for DC50: read-out: Cell Density TPC-1/CCDC6-RET DC50, half-maximal degradation concentration, TPC-1 (CCDC6-RET), 24 hrs
Summary of the method: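 TPC-1 papillary thyroid carcinoma cells (endogenous CCDC6-RET) in DMEM with 2% FBS, compound-treated 24 h at 37 °C. RET in lysates quantified by AlphaLISA luminescence, normalized to media-only and DMSO wells; DC50 and maximal degradation from 4-parameter logistic fit.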

T1 sequence (Q16204+P07949 fused): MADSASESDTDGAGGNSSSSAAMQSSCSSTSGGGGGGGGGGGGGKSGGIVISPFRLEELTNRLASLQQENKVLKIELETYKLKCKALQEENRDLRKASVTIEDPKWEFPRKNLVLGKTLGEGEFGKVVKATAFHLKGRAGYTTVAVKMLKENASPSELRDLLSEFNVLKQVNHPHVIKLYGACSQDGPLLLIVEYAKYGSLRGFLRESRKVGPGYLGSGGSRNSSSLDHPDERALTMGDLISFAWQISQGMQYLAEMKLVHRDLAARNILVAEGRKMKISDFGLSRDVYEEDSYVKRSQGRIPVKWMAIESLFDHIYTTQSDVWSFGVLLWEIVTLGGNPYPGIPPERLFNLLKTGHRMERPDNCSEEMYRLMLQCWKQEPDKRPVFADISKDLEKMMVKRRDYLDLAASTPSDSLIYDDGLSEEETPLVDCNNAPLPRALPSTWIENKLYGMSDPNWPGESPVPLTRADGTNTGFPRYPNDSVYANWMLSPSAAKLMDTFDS
T1 sequence (Q96SW2 whole entry, the tested form may be a part): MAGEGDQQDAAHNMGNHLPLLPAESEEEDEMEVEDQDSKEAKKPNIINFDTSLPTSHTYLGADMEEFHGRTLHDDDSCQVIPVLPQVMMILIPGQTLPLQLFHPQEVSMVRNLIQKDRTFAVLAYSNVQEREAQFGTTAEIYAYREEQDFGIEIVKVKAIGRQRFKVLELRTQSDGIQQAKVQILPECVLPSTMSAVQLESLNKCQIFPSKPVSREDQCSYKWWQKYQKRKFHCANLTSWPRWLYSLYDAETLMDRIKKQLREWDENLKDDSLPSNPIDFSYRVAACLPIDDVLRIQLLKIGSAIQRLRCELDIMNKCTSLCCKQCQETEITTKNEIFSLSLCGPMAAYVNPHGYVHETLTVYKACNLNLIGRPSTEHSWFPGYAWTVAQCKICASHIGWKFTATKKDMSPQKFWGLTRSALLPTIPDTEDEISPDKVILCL
T1 sequence (Q16531 whole entry partner, the tested form may be a part): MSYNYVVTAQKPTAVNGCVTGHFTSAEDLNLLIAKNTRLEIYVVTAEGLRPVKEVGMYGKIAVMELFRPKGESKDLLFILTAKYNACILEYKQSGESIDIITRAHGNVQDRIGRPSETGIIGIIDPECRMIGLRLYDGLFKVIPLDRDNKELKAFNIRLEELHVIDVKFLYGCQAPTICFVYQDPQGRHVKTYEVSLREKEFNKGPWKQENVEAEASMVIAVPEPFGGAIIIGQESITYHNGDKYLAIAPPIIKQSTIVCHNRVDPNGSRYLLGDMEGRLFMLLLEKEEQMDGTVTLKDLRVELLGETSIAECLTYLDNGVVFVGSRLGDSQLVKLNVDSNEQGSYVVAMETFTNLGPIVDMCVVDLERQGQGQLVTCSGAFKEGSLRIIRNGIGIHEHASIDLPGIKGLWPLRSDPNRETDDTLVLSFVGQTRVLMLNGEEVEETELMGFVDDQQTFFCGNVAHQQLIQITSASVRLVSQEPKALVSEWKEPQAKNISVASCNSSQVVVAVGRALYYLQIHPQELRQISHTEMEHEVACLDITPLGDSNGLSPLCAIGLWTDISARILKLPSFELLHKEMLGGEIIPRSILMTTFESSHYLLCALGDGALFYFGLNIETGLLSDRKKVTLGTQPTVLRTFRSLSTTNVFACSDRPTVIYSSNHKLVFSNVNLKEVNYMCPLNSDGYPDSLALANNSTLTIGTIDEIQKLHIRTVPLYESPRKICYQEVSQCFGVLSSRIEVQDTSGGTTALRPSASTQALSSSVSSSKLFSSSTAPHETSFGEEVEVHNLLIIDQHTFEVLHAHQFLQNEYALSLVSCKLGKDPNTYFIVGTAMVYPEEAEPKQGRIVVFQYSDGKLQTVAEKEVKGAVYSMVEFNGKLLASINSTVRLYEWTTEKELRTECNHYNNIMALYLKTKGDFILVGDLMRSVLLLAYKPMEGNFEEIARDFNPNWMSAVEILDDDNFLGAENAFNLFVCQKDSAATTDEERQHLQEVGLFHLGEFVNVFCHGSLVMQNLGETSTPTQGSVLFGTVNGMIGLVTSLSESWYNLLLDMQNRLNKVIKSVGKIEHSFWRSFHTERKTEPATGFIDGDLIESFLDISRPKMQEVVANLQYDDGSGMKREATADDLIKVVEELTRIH

SMILES | Dmax [%] | DC50 [nM]
CCOc1cc(-c2ccc(N3CCC(NC(=O)c4cc(F)ccc4F)(C(=O)NCCCCCCNc4cccc5c(N6CCC(=O)NC6=O)nn(C)c45)CC3)nc2)c2c(C#N)cnn2c1 [Example 149, 1-(5-{3-cyano-6-ethoxypyrazolo[1,5-a]pyridin-4-yl}pyridin-2-yl)-4-(2,5-difluorobenzamido)-N-(6-{[3-(2,4-dioxo-1,3-diazinan-1-yl)-1-methyl-1H-indazol-7-yl]amino}hexyl)piperidine-4-carboxamide] | > 90 | < 2
CCOc1cc(-c2ccc(N3CCC(NC(=O)c4cc(F)ccc4F)(C(=O)NCCCCCCCCCCNc4cccc5c(N6CCC(=O)NC6=O)nn(C)c45)CC3)nc2)c2c(C#N)cnn2c1 [Example 150, 1-(5-{3-cyano-6-ethoxypyrazolo[1,5-a]pyridin-4-yl}pyridin-2-yl)-4-(2,5-difluorobenzamido)-N-(10-{[3-(2,4-dioxo-1,3-diazinan-1-yl)-1-methyl-1H-indazol-7-yl]amino}decyl)piperidine-4-carboxamide] | > 90 | 10 to 100
CCOc1cc(-c2ccc(N3CCC(NC(=O)c4cc(F)ccc4F)(C(=O)NCCCCCCCCNc4ccc5c(N6CCC(=O)NC6=O)nn(C)c5c4)CC3)nc2)c2c(C#N)cnn2c1 [Example 152, 1-(5-{3-cyano-6-ethoxypyrazolo[1,5-a]pyridin-4-yl}pyridin-2-yl)-4-(2,5-difluorobenzamido)-N-(8-{[3-(2,4-dioxo-1,3-diazinan-1-yl)-1-methyl-1H-indazol-6-yl]amino}octyl)piperidine-4-carboxamide] | 60 to 90 | 2 to 10
CCOc1cc(-c2ccc(N3CCC(NC(=O)c4cc(F)ccc4F)(C(=O)NCCCCCCCCCCNc4ccc5c(N6CCC(=O)NC6=O)nn(C)c5c4)CC3)nc2)c2c(C#N)cnn2c1 [Example 153, 1-(5-{3-cyano-6-ethoxypyrazolo[1,5-a]pyridin-4-yl}pyridin-2-yl)-4-(2,5-difluorobenzamido)-N-(10-{[3-(2,4-dioxo-1,3-diazinan-1-yl)-1-methyl-1H-indazol-6-yl]amino}decyl)piperidine-4-carboxamide] | > 90 | 2 to 10
CCOc1cc(-c2ccc(N3CCC(NC(=O)c4cc(F)ccc4F)(C(=O)NCCCCCCN4CCN(c5ccc6c(c5)CN(C5CCC(=O)NC5=O)C6=O)CC4)CC3)nc2)c2c(C#N)cnn2c1 (stereo not shown) [Example 155, 1-(5-{3-cyano-6-ethoxypyrazolo[1,5-a]pyridin-4-yl}pyridin-2-yl)-4-(2,5-difluorobenzamido)-N-(6-{4-[2-(2,6-dioxopiperidin-3-yl)-1-oxo-2,3-dihydro-1H-isoindol-5-yl]piperazin-1-yl}hexyl)piperidine-4-carboxamide] | 60 to 90 | < 2
CCOc1cc(-c2ccc(N3CCC(NC(=O)c4cc(F)ccc4F)(C(=O)NCCN4CCC(c5ccc6c(c5)CN(C5CCC(=O)NC5=O)C6=O)CC4)CC3)nc2)c2c(C#N)cnn2c1 (stereo not shown) [Example 156, 1-(5-{3-cyano-6-ethoxypyrazolo[1,5-a]pyridin-4-yl}pyridin-2-yl)-4-(2,5-difluorobenzamido)-N-(2-{4-[2-(2,6-dioxopiperidin-3-yl)-1-oxo-2,3-dihydro-1H-isoindol-5-yl]piperidin-1-yl}ethyl)piperidine-4-carboxamide] | 60 to 90 | 2 to 10
CCOc1cc(-c2ccc(N3CCC(NC(=O)c4cc(F)ccc4F)(C(=O)NCCCCCCN4CCC(c5ccc6c(c5)CN(C5CCC(=O)NC5=O)C6=O)CC4)CC3)nc2)c2c(C#N)cnn2c1 (stereo not shown) [Example 157, 1-(5-{3-cyano-6-ethoxypyrazolo[1,5-a]pyridin-4-yl}pyridin-2-yl)-4-(2,5-difluorobenzamido)-N-(6-{4-[2-(2,6-dioxopiperidin-3-yl)-1-oxo-2,3-dihydro-1H-isoindol-5-yl]piperidin-1-yl}hexyl)piperidine-4-carboxamide] | > 90 | 2 to 10
CCOc1cc(-c2ccc(N3CCC(NC(=O)c4cc(F)ccc4F)(C(=O)NCCN4CCC(c5ccc6c(c5)C(=O)N(C5CCC(=O)NC5=O)C6)CC4)CC3)nc2)c2c(C#N)cnn2c1 (stereo not shown) [Example 161, 1-(5-{3-cyano-6-ethoxypyrazolo[1,5-a]pyridin-4-yl}pyridin-2-yl)-4-(2,5-difluorobenzamido)-N-(2-{4-[2-(2,6-dioxopiperidin-3-yl)-3-oxo-2,3-dihydro-1H-isoindol-5-yl]piperidin-1-yl}ethyl)piperidine-4-carboxamide] | 60 to 90 | < 2
CCOc1cc(-c2ccc(N3CCC(NC(=O)c4cc(F)ccc4F)(C(=O)NCCCCN4CCC(c5ccc6c(c5)C(=O)N(C5CCC(=O)NC5=O)C6)CC4)CC3)nc2)c2c(C#N)cnn2c1 (stereo not shown) [Example 162, 1-(5-{3-cyano-6-ethoxypyrazolo[1,5-a]pyridin-4-yl}pyridin-2-yl)-4-(2,5-difluorobenzamido)-N-(4-{4-[2-(2,6-dioxopiperidin-3-yl)-3-oxo-2,3-dihydro-1H-isoindol-5-yl]piperidin-1-yl}butyl)piperidine-4-carboxamide] | 60 to 90 | 10 to 100
CCOc1cc(-c2ccc(N3CCC(NC(=O)c4cc(F)ccc4F)(C(=O)NCCCCCCN4CCC(c5ccc6c(c5)C(=O)N(C5CCC(=O)NC5=O)C6)CC4)CC3)nc2)c2c(C#N)cnn2c1 (stereo not shown) [Example 163, 1-(5-{3-cyano-6-ethoxypyrazolo[1,5-a]pyridin-4-yl}pyridin-2-yl)-4-(2,5-difluorobenzamido)-N-(6-{4-[2-(2,6-dioxopiperidin-3-yl)-3-oxo-2,3-dihydro-1H-isoindol-5-yl]piperidin-1-yl}hexyl)piperidine-4-carboxamide] | 60 to 90 | 2 to 10

Now from value to molecule:

Dmax [%] | DC50 [nM] | SMILES
60 to 90 | 10 to 100 | CCOc1cc(-c2ccc(N3CCC(NC(=O)c4cc(F)ccc4F)(C(=O)NCCCCN4CCN(c5ccc6c(c5)CN(C5CCC(=O)NC5=O)C6=O)CC4)CC3)nc2)c2c(C#N)cnn2c1 (stereo not shown) [Example 154, 1-(5-{3-cyano-6-ethoxypyrazolo[1,5-a]pyridin-4-yl}pyridin-2-yl)-4-(2,5-difluorobenzamido)-N-(4-{4-[2-(2,6-dioxopiperidin-3-yl)-1-oxo-2,3-dihydro-1H-isoindol-5-yl]piperazin-1-yl}butyl)piperidine-4-carboxamide]
60 to 90 | < 2 | CCOc1cc(-c2ccc(N3CCC(NC(=O)c4cc(F)ccc4F)(C(=O)NCCN4CCN(c5ccc6c(c5)C(=O)N(C5CCC(=O)NC5=O)C6)CC4)CC3)nc2)c2c(C#N)cnn2c1 (stereo not shown) [Example 158, 1-(5-{3-cyano-6-ethoxypyrazolo[1,5-a]pyridin-4-yl}pyridin-2-yl)-4-(2,5-difluorobenzamido)-N-(2-{4-[2-(2,6-dioxopiperidin-3-yl)-3-oxo-2,3-dihydro-1H-isoindol-5-yl]piperazin-1-yl}ethyl)piperidine-4-carboxamide]
60 to 90 | 2 to 10 | CCOc1cc(-c2ccc(N3CCC(NC(=O)c4cc(F)ccc4F)(C(=O)NCCCCN4CCN(c5ccc6c(c5)C(=O)N(C5CCC(=O)NC5=O)C6)CC4)CC3)nc2)c2c(C#N)cnn2c1 (stereo not shown) [Example 159, 1-(5-{3-cyano-6-ethoxypyrazolo[1,5-a]pyridin-4-yl}pyridin-2-yl)-4-(2,5-difluorobenzamido)-N-(4-{4-[2-(2,6-dioxopiperidin-3-yl)-3-oxo-2,3-dihydro-1H-isoindol-5-yl]piperazin-1-yl}butyl)piperidine-4-carboxamide]
> 90 | 2 to 10 | CCOc1cc(-c2ccc(N3CCC(NC(=O)c4cc(F)ccc4F)(C(=O)NCCCCCCN4CCN(c5ccc6c(c5)C(=O)N(C5CCC(=O)NC5=O)C6)CC4)CC3)nc2)c2c(C#N)cnn2c1 (stereo not shown) [Example 160, 1-(5-{3-cyano-6-ethoxypyrazolo[1,5-a]pyridin-4-yl}pyridin-2-yl)-4-(2,5-difluorobenzamido)-N-(6-{4-[2-(2,6-dioxopiperidin-3-yl)-3-oxo-2,3-dihydro-1H-isoindol-5-yl]piperazin-1-yl}hexyl)piperidine-4-carboxamide]
> 90 | 2 to 10 | CCOc1cc(-c2ccc(N3CCC(CN(C(=O)CCCCN4CCN(c5ccc6c(c5)CN(C5CCC(=O)NC5=O)C6=O)CC4)C(C)C)(NC(=O)c4cc(F)ccc4F)CC3)nc2)c2c(C#N)cnn2c1 (stereo not shown) [Example 164, N-[1-(5-{3-cyano-6-ethoxypyrazolo[1,5-a]pyridin-4-yl}pyridin-2-yl)-4-[(5-{4-[2-(2,6-dioxopiperidin-3-yl)-1-oxo-2,3-dihydro-1H-isoindol-5-yl]piperazin-1-yl}-N-(propan-2-yl)pentanamido)methyl]piperidin-4-yl]-2,5-difluorobenzamide]
> 90 | < 2 | CCOc1cc(-c2ccc(N3CCC(CN(C(=O)CCCCCCN4CCN(c5ccc6c(c5)CN(C5CCC(=O)NC5=O)C6=O)CC4)C(C)C)(NC(=O)c4cc(F)ccc4F)CC3)nc2)c2c(C#N)cnn2c1 (stereo not shown) [Example 165, N-[1-(5-{3-cyano-6-ethoxypyrazolo[1,5-a]pyridin-4-yl}pyridin-2-yl)-4-[(7-{4-[2-(2,6-dioxopiperidin-3-yl)-1-oxo-2,3-dihydro-1H-isoindol-5-yl]piperazin-1-yl}-N-(propan-2-yl)heptanamido)methyl]piperidin-4-yl]-2,5-difluorobenzamide]
60 to 90 | 2 to 10 | CCOc1cc(-c2ccc(N3CCC(CN(C(=O)CCN4CCN(c5ccc6c(c5)C(=O)N(C5CCC(=O)NC5=O)C6)CC4)C(C)C)(NC(=O)c4cc(F)ccc4F)CC3)nc2)c2c(C#N)cnn2c1 (stereo not shown) [Example 167, N-[1-(5-{3-cyano-6-ethoxypyrazolo[1,5-a]pyridin-4-yl}pyridin-2-yl)-4-[(3-{4-[2-(2,6-dioxopiperidin-3-yl)-3-oxo-2,3-dihydro-1H-isoindol-5-yl]piperazin-1-yl}-N-(propan-2-yl)propanamido)methyl]piperidin-4-yl]-2,5-difluorobenzamide]
